Holding throughout (assay): EC50 assay: Ba/F3 stable cell proliferation (CCK-8, 72 h)
Holding throughout (type): cell-based

Experiment [1] addresses T1, Ba/F3 stable cells (Homo sapiens, UniProt P04626, DUP772-775, cells depend on it).
T1 construct: EC50 Ba/F3-HER2 A775-G776insYVMA; other: Ba/F3-HER2 A775-G776insYVMA cells, 72 h, CCK-8
To be noted: Ba/F3-HER2 A775-G776insYVMA cells. An outline of the steps:
(§1)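 Ba/F3 stable cells were seeded at 4,000 cells/90 μL/well in 96-well plates and held 2 h at 37° C. in 5% CO2, then given 10 μL of serially titrated compound (0.1% DMSO final). After 72 h at 37° C., CCK-8 reagent was added for 4 hours and absorbance read at 450 nm to derive EC50.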

Experiment [2] deals with T2, Ba/F3 stable cells (Homo sapiens, UniProt P00533, DUP767-769, cells depend on it).
T2 construct: EC50 Ba/F3-EGFR V769-D770insASV; other: Ba/F3-EGFR V769-D770insASV cells, 72 h, CCK-8
To be noted: Ba/F3-EGFR V769-D770insASV cells. An outline of the steps: as §1

The target in experiment [3] is T3, Ba/F3 stable cells (Homo sapiens, UniProt P00533, T790M/L858R, cells depend on it).
T3 construct: EC50 Ba/F3-EGFR L858R-T790M; other: Ba/F3-EGFR L858R-T790M cells, 72 h, CCK-8
The note with it: Ba/F3-EGFR L858R-T790M cells. An outline of the steps: as §1

Experiment [4] deals with T4, Ba/F3 stable cells (Homo sapiens, UniProt P00533, INS763FQEA, cells depend on it).
T4 construct: EC50 Ba/F3-EGFR A763-Y764insFQEA; other: Ba/F3-EGFR A763-Y764insFQEA cells, 72 h, CCK-8
The note with it: Ba/F3-EGFR A763-Y764insFQEA cells. The gist of the method: as §1

The target of experiment [5] is T5, Ba/F3 stable cells (Homo sapiens, UniProt P00533, DUP768-770, cells depend on it).
T5 construct: EC50 Ba/F3-EGFR D770-N771insSVD; other: Ba/F3-EGFR D770-N771insSVD cells, 72 h, CCK-8
To be noted: Ba/F3-EGFR D770-N771insSVD cells. An outline of the steps: as §1

Experiment [6] addresses T6, Ba/F3 stable cells (Homo sapiens, UniProt P00533, DUP771-773, cells depend on it).
T6 construct: EC50 Ba/F3-EGFR H773-V774insNPH; other: Ba/F3-EGFR H773-V774insNPH cells, 72 h, CCK-8
The note with it: Ba/F3-EGFR H773-V774insNPH cells. The gist of the method:
as §1

Structures can show the parent of a compound that is named as a salt. Some results are limits rather than exact numbers.

T3 sequence (P00533 whole entry T790M/L858R): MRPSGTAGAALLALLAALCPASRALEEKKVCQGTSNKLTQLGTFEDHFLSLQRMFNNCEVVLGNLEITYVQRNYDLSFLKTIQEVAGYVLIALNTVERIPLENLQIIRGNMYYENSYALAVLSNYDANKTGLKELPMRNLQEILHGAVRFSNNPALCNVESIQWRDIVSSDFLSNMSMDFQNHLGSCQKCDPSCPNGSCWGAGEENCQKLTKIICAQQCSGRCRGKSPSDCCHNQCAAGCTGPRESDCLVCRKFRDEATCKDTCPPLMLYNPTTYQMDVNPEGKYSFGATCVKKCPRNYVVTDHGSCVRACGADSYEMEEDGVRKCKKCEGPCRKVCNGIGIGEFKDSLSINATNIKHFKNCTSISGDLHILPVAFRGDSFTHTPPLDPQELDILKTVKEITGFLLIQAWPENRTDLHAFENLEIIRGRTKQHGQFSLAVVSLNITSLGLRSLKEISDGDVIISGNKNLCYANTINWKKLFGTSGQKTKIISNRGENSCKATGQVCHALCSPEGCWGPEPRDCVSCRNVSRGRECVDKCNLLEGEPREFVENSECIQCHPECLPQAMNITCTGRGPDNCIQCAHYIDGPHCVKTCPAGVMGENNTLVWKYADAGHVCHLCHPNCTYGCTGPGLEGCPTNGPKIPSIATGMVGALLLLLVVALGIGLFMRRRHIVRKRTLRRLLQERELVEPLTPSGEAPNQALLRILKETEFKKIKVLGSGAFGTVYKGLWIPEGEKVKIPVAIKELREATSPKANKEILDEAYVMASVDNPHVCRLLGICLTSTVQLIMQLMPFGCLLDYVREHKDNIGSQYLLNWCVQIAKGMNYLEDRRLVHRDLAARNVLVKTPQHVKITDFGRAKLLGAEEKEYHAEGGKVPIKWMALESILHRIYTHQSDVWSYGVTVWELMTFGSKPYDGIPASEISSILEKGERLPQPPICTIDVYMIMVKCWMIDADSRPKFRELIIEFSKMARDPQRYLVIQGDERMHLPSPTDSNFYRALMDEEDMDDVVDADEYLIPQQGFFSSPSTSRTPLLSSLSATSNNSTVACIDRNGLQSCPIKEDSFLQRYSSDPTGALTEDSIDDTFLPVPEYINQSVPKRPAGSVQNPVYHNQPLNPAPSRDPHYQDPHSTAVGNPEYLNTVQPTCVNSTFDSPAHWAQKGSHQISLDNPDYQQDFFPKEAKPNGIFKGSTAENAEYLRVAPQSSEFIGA
T4 sequence (P00533 with tags, fused parts or gaps INS763FQEA): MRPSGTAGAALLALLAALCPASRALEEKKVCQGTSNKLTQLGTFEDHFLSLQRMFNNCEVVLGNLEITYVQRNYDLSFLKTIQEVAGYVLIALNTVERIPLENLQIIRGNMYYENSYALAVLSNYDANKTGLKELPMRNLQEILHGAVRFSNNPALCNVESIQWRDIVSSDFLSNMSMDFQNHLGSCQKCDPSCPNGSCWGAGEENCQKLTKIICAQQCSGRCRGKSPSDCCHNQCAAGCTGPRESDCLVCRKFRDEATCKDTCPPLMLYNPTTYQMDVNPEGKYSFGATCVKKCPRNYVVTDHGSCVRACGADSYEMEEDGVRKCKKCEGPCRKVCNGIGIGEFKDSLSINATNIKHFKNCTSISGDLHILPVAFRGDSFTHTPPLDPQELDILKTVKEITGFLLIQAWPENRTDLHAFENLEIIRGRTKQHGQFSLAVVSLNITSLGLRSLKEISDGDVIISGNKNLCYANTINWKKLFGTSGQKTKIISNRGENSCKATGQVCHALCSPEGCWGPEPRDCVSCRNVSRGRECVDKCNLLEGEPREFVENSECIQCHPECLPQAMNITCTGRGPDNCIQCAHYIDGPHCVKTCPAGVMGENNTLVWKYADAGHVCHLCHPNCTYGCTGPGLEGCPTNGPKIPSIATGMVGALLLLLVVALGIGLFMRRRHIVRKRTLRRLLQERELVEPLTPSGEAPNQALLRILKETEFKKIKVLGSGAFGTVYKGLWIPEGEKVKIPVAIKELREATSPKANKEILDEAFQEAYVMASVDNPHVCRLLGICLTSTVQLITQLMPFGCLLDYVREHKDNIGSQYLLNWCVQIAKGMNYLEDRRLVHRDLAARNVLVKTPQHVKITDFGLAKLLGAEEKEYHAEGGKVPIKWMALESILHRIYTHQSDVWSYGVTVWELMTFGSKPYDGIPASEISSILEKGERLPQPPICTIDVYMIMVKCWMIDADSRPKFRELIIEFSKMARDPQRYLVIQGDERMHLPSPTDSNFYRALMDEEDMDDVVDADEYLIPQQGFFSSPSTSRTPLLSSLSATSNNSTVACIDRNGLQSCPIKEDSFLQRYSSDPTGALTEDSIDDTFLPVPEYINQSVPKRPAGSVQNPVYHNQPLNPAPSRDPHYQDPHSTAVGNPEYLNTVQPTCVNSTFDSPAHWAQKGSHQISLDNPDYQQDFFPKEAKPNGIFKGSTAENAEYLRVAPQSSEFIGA
T6 sequence (P00533 with tags, fused parts or gaps DUP771-773): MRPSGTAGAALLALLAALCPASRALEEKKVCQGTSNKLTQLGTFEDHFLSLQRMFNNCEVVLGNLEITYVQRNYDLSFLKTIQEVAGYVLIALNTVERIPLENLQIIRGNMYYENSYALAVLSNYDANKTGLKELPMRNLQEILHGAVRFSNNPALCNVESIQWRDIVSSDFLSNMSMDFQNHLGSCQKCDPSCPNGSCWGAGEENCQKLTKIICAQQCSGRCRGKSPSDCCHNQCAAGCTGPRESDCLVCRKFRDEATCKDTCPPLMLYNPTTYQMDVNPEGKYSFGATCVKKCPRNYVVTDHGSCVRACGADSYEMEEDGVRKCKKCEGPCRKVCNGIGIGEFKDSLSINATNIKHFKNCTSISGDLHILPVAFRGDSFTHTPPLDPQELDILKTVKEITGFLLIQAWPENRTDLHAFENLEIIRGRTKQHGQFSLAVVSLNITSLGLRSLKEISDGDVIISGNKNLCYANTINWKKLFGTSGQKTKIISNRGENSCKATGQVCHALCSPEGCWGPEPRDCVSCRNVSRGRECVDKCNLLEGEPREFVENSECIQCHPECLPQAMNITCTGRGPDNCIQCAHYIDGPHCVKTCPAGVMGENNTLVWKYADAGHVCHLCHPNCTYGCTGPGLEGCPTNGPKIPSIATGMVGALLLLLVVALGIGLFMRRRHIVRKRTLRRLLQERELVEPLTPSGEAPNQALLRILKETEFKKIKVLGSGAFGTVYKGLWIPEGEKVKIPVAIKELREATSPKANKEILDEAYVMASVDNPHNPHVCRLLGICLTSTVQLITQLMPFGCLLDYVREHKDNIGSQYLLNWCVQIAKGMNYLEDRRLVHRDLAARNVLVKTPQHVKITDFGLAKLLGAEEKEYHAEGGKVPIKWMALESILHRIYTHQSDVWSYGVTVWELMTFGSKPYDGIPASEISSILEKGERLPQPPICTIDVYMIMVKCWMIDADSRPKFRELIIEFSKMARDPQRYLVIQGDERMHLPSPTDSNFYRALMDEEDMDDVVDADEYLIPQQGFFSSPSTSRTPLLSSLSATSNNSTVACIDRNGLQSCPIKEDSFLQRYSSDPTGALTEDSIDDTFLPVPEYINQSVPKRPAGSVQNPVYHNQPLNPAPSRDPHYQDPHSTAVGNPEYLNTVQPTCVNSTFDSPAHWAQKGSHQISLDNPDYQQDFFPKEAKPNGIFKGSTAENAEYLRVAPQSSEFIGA
T2 sequence (P00533 with tags, fused parts or gaps DUP767-769): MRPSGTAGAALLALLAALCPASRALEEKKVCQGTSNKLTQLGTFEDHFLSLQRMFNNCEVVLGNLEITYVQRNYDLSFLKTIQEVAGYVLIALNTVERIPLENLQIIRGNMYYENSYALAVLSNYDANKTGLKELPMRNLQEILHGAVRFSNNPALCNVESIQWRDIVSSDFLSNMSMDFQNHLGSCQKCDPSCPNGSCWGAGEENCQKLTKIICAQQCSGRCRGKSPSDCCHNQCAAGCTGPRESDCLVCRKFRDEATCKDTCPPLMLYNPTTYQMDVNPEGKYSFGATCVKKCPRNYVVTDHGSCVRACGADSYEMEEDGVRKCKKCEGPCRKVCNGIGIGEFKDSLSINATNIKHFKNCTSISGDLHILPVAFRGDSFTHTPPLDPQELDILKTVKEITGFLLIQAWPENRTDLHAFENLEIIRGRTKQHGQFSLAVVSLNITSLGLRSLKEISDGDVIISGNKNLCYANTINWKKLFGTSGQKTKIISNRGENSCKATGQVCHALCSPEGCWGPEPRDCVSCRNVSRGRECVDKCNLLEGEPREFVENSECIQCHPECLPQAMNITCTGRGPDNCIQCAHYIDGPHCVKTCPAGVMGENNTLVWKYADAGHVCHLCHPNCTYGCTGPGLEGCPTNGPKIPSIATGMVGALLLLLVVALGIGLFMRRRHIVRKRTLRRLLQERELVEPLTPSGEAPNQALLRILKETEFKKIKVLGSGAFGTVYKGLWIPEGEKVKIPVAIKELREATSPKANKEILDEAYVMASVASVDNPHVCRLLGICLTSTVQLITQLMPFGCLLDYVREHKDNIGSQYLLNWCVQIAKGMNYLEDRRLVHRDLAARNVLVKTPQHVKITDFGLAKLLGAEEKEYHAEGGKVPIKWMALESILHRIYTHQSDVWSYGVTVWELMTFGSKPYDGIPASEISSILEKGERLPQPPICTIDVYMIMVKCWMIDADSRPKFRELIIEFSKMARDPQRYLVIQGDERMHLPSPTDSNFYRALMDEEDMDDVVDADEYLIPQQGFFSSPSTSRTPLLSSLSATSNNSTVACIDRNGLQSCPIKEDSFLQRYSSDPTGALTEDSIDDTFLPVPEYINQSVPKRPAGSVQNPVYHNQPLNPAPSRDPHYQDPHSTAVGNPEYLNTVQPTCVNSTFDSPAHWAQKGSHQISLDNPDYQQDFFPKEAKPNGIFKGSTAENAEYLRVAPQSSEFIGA

As to `C=CC(=O)N1CCC=C(c2cc3c(Nc4ccc(Cl)c(Cl)c4F)ncnc3cc2OC)C1` [Compound 186, 1-(5-(4-((3,4-dichloro-2-fluorophenyl)amino)-7-methoxyquinazolin-6-yl)-3,6-dihydropyridin-1(2H)-yl)prop-2-en-1-one], the EC50 (commonly the midpoint of the concentration-response curve) was 0.2 to 1 µM in experiment [1]; ≤ 0.2 µM in experiment [2]; > 1 µM in experiment [3]; ≤ 0.2 µM in experiment [4]; 0.2 to 1 µM in experiment [5]; ≤ 0.2 µM in experiment [6].
Turning to `C=CC(=O)N1CCC=C(c2ccc3ncnc(Nc4ccc(Cl)c(Cl)c4F)c3c2)C1` [Compound 187, 1-(5-(4-((3,4-dichloro-2-fluorophenyl)amino)quinazolin-6-yl)-3,6-dihydropyridin-1(2H)-yl)prop-2-en-1-one], the EC50 in experiment [1] is 0.2 to 1 µM; in experiment [2] it was ≤ 0.2 µM; in experiment [3] it was 0.2 to 1 µM; in experiment [4], ≤ 0.2 µM; in experiment [5] it was 0.2 to 1 µM; in experiment [6], 0.2 to 1 µM.
`C=CS(=O)(=O)N1CCCC(c2ccc3ncnc(Nc4ccc(Cl)c(Cl)c4F)c3c2)C1` (stereo not drawn) [Compound 188, N-(3,4-dichloro-2-fluorophenyl)-6-(1-(vinylsulfonyl)piperidin-3-yl)quinazolin-4-amine]: the EC50 in experiment [1] is 0.2 to 1 µM; in experiment [2] it was ≤ 0.2 µM; in experiment [3] it was ≤ 0.2 µM; in experiment [4], ≤ 0.2 µM; in experiment [5], 0.2 to 1 µM; in experiment [6] it was ≤ 0.2 µM.
Turning to `C=CS(=O)(=O)N1CCC=C(c2ccc3ncnc(Nc4ccc(Cl)c(Cl)c4F)c3c2)C1` [Compound 190, N-(3,4-dichloro-2-fluorophenyl)-6-(1-(vinylsulfonyl)-1,2,5,6-tetrahydropyridin-3-yl)quinazolin-4-amine], the EC50 in experiment [1] was 0.2 to 1 µM; in experiment [2], ≤ 0.2 µM; in experiment [3], ≤ 0.2 µM; in experiment [4], ≤ 0.2 µM; in experiment [5], ≤ 0.2 µM; in experiment [6], ≤ 0.2 µM.
Consider `C=CS(=O)(=O)NC1CC(Oc2cc3c(Nc4ccc(Cl)c(Cl)c4F)ncnc3cc2OC)C1` (stereo not drawn) [Compound 191, N-(3-((4-((3,4-dichloro-2-fluorophenyl)amino)-7-methoxyquinazolin-6-yl)oxy)cyclobutyl)ethenesulfonamide], for which the EC50 in experiment [1] was > 1 µM; in experiment [2] it was ≤ 0.2 µM; in experiment [3], ≤ 0.2 µM; in experiment [4], ≤ 0.2 µM; in experiment [5], ≤ 0.2 µM; in experiment [6] it was ≤ 0.2 µM.
On to `C=CS(=O)(=O)N1CCC(Oc2cc3c(Nc4ccc(Cl)c(Cl)c4F)ncnc3cc2OC)CC1` [Compound 192, N-(3,4-dichloro-2-fluorophenyl)-7-methoxy-6-((1-(vinylsulfonyl)piperidin-4-yl)oxy)quinazolin-4-amine], for which the EC50 in experiment [1] is 0.2 to 1 µM; in experiment [2] it was ≤ 0.2 µM; in experiment [3], ≤ 0.2 µM; in experiment [4] it was ≤ 0.2 µM; in experiment [5], > 1 µM; in experiment [6] it was ≤ 0.2 µM.
As to `C=CS(=O)(=O)N1CCC(Oc2cc3c(C(=O)c4ccc(Cl)c(Cl)c4F)ncnc3cc2OC)CC1` [Compound 193, (3,4-dichloro-2-fluorophenyl)(7-methoxy-6-((1-(vinylsulfonyl)piperidin-4-yl)oxy)quinazolin-4-yl)methanone], the EC50 is > 1 µM in experiment [1]; 0.2 to 1 µM in experiment [2]; 0.2 to 1 µM in experiment [3]; ≤ 0.2 µM in experiment [4]; > 1 µM in experiment [5]; 0.2 to 1 µM in experiment [6].
Regarding `COc1cc2ncnc(Nc3ccc(Cl)c(Cl)c3F)c2cc1OC1CCN(C#N)CC1` [Compound 194, 4-((4-((3,4-dichloro-2-fluorophenyl)amino)-7-methoxyquinazolin-6-yl)oxy)piperidine-1-carbonitrile], the EC50 in experiment [1] was > 1 µM; in experiment [2], ≤ 0.2 µM; in experiment [3], > 1 µM; in experiment [4] it was ≤ 0.2 µM; in experiment [5], > 1 µM; in experiment [6] it was 0.2 to 1 µM.
As to `COc1cc2ncnc(Nc3ccc(Cl)c(Cl)c3F)c2cc1C1CN(C#N)C1` [Compound 195, 3-(4-((3,4-dichloro-2-fluorophenyl)amino)-7-methoxy-quinazolin-6-yl)azetidine-1-carbonitrile], the EC50 was 0.2 to 1 µM in experiment [1]; > 1 µM in experiment [2]; 0.2 to 1 µM in experiment [3]; 0.2 to 1 µM in experiment [4]; > 1 µM in experiment [5]; > 1 µM in experiment [6].
As for `COc1cc2ncnc(Nc3ccc(Cl)c(Cl)c3F)c2cc1OC1CC(N(C)C#N)C1` (stereo not drawn) [Compound 196, N-(3-((4-((3,4-dichloro-2-fluorophenyl)amino)-7-methoxy-quinazolin-6-yl)oxy)cyclobutyl)-N-methylcyanamide], the concentration for a half-maximal effect (EC50) in experiment [1] is 0.2 to 1 µM; in experiment [2], ≤ 0.2 µM; in experiment [3], > 1 µM; in experiment [4], ≤ 0.2 µM; in experiment [5], 0.2 to 1 µM; in experiment [6] it was 0.2 to 1 µM.
On to `COc1cc2ncnc(Nc3ccc(Cl)c(Cl)c3F)c2cc1C1=CCCN(C#N)C1` [Compound 197, 5-(4-((3,4-dichloro-2-fluorophenyl)amino)-7-methoxy-quinazolin-6-yl)-3,6-dihydropyridine-1(2H)-carbonitrile], for which the EC50 was > 1 µM in experiment [1]; > 1 µM in experiment [2]; > 1 µM in experiment [3]; 0.2 to 1 µM in experiment [4]; > 1 µM in experiment [5]; > 1 µM in experiment [6].
Regarding `COc1cc2ncnc(Nc3ccc(Cl)c(Cl)c3F)c2cc1OC1CCCN(C#N)C1` (stereo not drawn) [Compound 198, 3-((4-((3,4-dichloro-2-fluorophenyl)amino)-7-methoxy-quinazolin-6-yl)oxy)piperidine-1-carbonitrile], the EC50 in experiment [1] was > 1 µM; in experiment [2] it was 0.2 to 1 µM; in experiment [3], > 1 µM; in experiment [4], ≤ 0.2 µM; in experiment [5] it was > 1 µM; in experiment [6], 0.2 to 1 µM.
Turning to `C=CC(=O)N1CCC(Oc2c(OC)cc3ncnc4c3c2NC(=O)N4c2ccc(Cl)c(Cl)c2F)CC1` [Compound 199, 9-((1-acryloylpiperidin-4-yl)oxy)-3-(3,4-dichloro-2-fluorophenyl)-8-methoxy-1H-pyrimido[4,5,6-de]quinazolin-2(3H)-one], the EC50 was 0.2 to 1 µM in experiment [1]; 0.2 to 1 µM in experiment [2]; 0.2 to 1 µM in experiment [3]; ≤ 0.2 µM in experiment [4]; 0.2 to 1 µM in experiment [5]; 0.2 to 1 µM in experiment [6].
Consider `C=CC(=O)N1CCC(Oc2c(OC)cc3ncnc4c3c2N(C)C(=O)N4c2ccc(Cl)c(Cl)c2F)CC1` [Compound 200, 9-((1-acryloylpiperidin-4-yl)oxy)-3-(3,4-dichloro-2-fluorophenyl)-8-methoxy-1-methyl-1H-pyrimido[4,5,6-de]quinazolin-2(3H)-one], for which the EC50 in experiment [1] was > 1 µM; in experiment [2] it was 0.2 to 1 µM; in experiment [3] it was > 1 µM; in experiment [4], ≤ 0.2 µM; in experiment [5], > 1 µM; in experiment [6], 0.2 to 1 µM.
With `C=CC(=O)N1CCC(Oc2c(OC)cc3ncnc4c3c2NC(=O)N4c2ccc(Cl)c(Cl)c2F)C1` (stereo not drawn) [Compound 205, 9-((1-acryloylpyrrolidin-3-yl)oxy)-3-(3,4-dichloro-2-fluorophenyl)-8-methoxy-1H-pyrimido[4,5,6-de]quinazolin-2(3H)-one], the EC50 is > 1 µM in experiment [1]; > 1 µM in experiment [2]; > 1 µM in experiment [3]; 0.2 to 1 µM in experiment [4]; > 1 µM in experiment [5]; > 1 µM in experiment [6].
With `C=CC(=O)N1CC=C(c2c(OC)cc3ncnc4c3c2N(C)C(=O)N4c2ccc(Cl)c(Cl)c2F)CC1` [Compound 206, 9-(1-acryloyl-1,2,3,6-tetrahydropyridin-4-yl)-3-(3,4-dichloro-2-fluorophenyl)-8-methoxy-1-methyl-1H-pyrimido[4,5,6-de]quinazolin-2(3H)-one], the EC50 is 0.2 to 1 µM in experiment [1]; 0.2 to 1 µM in experiment [2]; > 1 µM in experiment [3]; ≤ 0.2 µM in experiment [4]; > 1 µM in experiment [5]; > 1 µM in experiment [6].
For `COc1cc2ncnc(Nc3ccc(Cl)c(Cl)c3F)c2c([N+](=O)[O-])c1OC1CCNCC1` [Compound 207, N-(3,4-dichloro-2-fluorophenyl)-7-methoxy-5-nitro-6-(piperidin-4-yloxy)quinazolin-4-amine hydrochloride], the EC50 was 0.2 to 1 µM in experiment [1]; 0.2 to 1 µM in experiment [2]; 0.2 to 1 µM in experiment [3]; ≤ 0.2 µM in experiment [4]; > 1 µM in experiment [5]; 0.2 to 1 µM in experiment [6].

Source of the values: patent publication US20250243171A1, “QUINAZOLINE COMPOUNDS FOR TREATMENT OF DISEASE” (Arthrosi Therapeutics, Inc., priority 2021, published 2025).
